According to US9926369B2, “Methods for treating hepatocellular cancer by administering an anti-Ang-2 antibody” (Regeneron Pharmaceuticals, Inc., priority 2009, dated 2018):

Columns and labels:
[1] = tested on: PC3 (Human Prostate Cancer Cell Line) tumors; assay: PC3 mouse tumor model; type: in vivo, NCr nude mice
Protocol: Briefly, 5×10^6 PC3 cells in 100 μl of growth factor-reduced Matrigel (BD Biosciences) were injected subcutaneously into the flanks of 6-8 week old male NCr nude mice (Taconic, Hudson, N.Y.). After tumor volumes reached an average of about 200 mm^3, mice were randomized into groups for treatment. […] Tumor volumes were measured twice per week over the course of the experiment and tumor weights were measured upon excision of tumors at the conclusion of the experiment. Averages (mean+/−standard deviation) of tumor weight and growth were calculated for each treatment group. Percent decrease of tumor weight and growth were calculated from comparison to Fc protein measurements.

[2] = molecular target: T1, hAng-1-WT binding to hTie-2-mFc (Homo sapiens, UniProt Q15389); assay: Biosensor SPR blocking of hAng-1-WT binding to hTie-2-mFc-ecto surface; type: biochemical; conditions: for Percent of Neg. Ctrl Binding (hAng-1 WT) / Specific Bound RU (hAng-1 WT): 10 nM hAng-1-WT
T1 sequence (Q15389 20-498 limits assumed): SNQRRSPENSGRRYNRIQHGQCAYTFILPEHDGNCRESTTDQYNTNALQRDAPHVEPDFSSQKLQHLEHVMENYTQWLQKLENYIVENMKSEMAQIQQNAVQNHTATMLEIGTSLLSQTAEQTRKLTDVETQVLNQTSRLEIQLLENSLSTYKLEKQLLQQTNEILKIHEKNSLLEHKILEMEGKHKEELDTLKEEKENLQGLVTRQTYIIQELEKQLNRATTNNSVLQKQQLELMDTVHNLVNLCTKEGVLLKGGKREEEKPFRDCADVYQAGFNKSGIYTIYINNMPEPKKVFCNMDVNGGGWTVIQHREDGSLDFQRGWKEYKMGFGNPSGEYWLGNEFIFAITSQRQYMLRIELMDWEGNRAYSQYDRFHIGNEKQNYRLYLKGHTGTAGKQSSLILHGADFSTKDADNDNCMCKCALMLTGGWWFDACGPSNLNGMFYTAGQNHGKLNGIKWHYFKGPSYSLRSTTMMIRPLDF
Protocol: In an effort to further assess the ability of selected anti-hAng-2 antibodies to block the binding of Ang-1 to Tie-2, a biosensor surface plasmon resonance experiment was conducted. In this experiment, a human Tie-2 full-length extracellular domain construct (hTie-2-mFc-ecto) was amine-coupled on a BIACORE™ chip to create a receptor coated surface. Selected anti-hAng-2 antibodies and control constructs, at 1 μM (100-fold excess over antigen), were premixed with 10 nM of hAng-1-WT, followed by 60 minutes incubation at 25° C. to allow antibody-antigen binding to reach equilibrium to form equilibrated solutions. The equilibrated solutions were injected over the receptor surfaces at 5 μL/min for 5 minutes at 25° C. Changes in resonance units (RU) due to the binding of the hAng-1-WT to hTie-2-mFc were determined. An irrelevant peptibody construct with no binding to hAng-1 was included in this experiment to establish the 0% blocking baseline, and a human Tie-2-mFc construct was used as a positive control for blocking. The amount of Ang-1 bound to Tie-2 following antibody preincubation, expressed as a percentage of the amount of Ang-1 bound to Tie-2 following negative control preincubation, is shown in Table 20. (A greater amount of Ang-1 binding to Tie-2 signifies a lower degree of antibody blocking).
The foregoing experiment was repeated using different amounts of Ang-2 blockers and controls. In particular, a human Tie-2 full-length extracellular domain construct (hTie-2-mFc-ecto) was amine-coupled on a BIACORE™ chip to create a receptor-coated surface. Selected anti-hAng-2 antibodies and control constructs (50 or 150 nM) were mixed with hAng-2-WT (25 nM) followed by 60 minutes incubation at 25° C. to allow antibody-antigen binding to reach equilibrium. The equilibrated solutions were injected over the receptor surfaces at 10 μL/min for 5 minutes at 25° C. To evaluate the ability of the selected anti-hAng-2 antibodies to block Ang-1-WT binding to hTie-2, a similar procedure was followed except the antibodies were tested at three concentrations (50, 100 or 1000 nM) and incubated with 10 nM of hAng-1-WT. Changes in resonance units (RU) due to the binding of the Ang-2-WT or hAng-1-WT to hTie-2-mFc were determined. An irrelevant antibody with no binding to either angiopoietin was included in these experiments to establish the 0% blocking baseline, and a human Tie-2-mFc construct was used as a positive control for blocking. Results are summarized in Tables 21 (hAng-1 applied to a hTie-2 surface) and 22 (hAng-2 applied to a hTie-2 surface).

[3] = molecular target: T2, Dimeric Human Ang-2FD (Homo sapiens, UniProt O15123); assay: Surface plasmon resonance binding to dimeric human Ang-2FD conjugated to human IgG1; conditions: SPR, room temperature
T2 sequence (O15123 282-496): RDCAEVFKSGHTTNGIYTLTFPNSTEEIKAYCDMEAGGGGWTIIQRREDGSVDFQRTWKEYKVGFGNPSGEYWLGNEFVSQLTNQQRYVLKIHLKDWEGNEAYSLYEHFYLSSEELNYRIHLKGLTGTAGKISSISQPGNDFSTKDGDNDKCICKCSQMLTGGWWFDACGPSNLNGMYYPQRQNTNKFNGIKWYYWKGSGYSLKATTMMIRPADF
Protocol: Equilibrium dissociation constants (KD values) for the binding of selected purified Ang-2 antibodies to dimeric fibrinogen-like domain of human (SEQ ID NO: 519), mouse (Mus musculus; SEQ ID NO: 520) and monkey (Macca fascicularis; SEQ ID NO: 521) Ang-2 (Ang-2FD) conjugated to human IgG1 (SEQ ID NO:528) were determined by surface kinetics using a real-time biosensor surface plasmon resonance assay. Antibody was captured on a goat anti-mouse IgG polyclonal antibody surface, a goat anti-human κ polyclonal antibody (Southern Biotech, Birmingham, Ala.) surface or a goat anti-human IgG polyclonal antibody (Jackson Immuno Research Lab, West Grove, Pa.) surface created through direct amine coupling to a BIACORE™ CM5 sensor chip to form a captured antibody surface. Varying concentrations (ranging from 50 nM to 6.25 nM) of protein were injected at 100 μl/min over captured antibody surface for 90 seconds. Antigen-antibody binding and dissociation were monitored in real time at room temperature. Kinetic analysis was performed to calculate KD and half-life of antigen/antibody complex dissociation.
The above experiment was repeated using selected purified anti-Ang-2 antibodies cloned onto human IgG1.

[4] = molecular target: hBA2 (Homo sapiens, UniProt O15123); assay: SPR binding to human bow-Ang-2 tetrameric construct (hBA2)
[5] = PC3, 2.5 mg/kg subcutaneous twice per week
[6] = PC3, 10 mg/kg intraperitoneal twice per week, vs Fc protein
[7] = PC3, 12.5 mg/kg subcutaneous twice per week
[8] = PC3, 25 mg/kg subcutaneous twice per week
[9] = 1 μM antibody premixed with 10 nM hAng-1-WT, 25° C.

Sequence of hBA2 (O15123 with tags, fused parts or gaps): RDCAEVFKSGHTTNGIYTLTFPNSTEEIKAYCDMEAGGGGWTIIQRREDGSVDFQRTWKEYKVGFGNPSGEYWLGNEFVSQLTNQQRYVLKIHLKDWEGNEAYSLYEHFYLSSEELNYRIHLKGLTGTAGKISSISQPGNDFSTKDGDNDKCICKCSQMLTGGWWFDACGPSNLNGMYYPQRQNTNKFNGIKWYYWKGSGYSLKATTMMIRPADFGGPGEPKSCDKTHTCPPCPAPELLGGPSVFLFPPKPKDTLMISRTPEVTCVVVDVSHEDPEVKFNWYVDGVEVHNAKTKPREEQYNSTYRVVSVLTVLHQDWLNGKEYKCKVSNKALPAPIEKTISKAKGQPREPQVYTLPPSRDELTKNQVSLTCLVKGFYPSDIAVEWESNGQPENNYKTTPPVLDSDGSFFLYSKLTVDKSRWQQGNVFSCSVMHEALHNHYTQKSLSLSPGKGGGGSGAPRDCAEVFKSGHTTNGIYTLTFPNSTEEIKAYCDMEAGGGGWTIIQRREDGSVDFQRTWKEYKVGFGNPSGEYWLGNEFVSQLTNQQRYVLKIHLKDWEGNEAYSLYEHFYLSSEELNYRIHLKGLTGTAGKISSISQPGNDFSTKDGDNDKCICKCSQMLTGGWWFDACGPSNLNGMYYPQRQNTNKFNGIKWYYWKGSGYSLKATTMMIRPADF

H1H685P: human anti-Ang-2 antibody, HCVR/LCVR SEQ ID NOs 18/20; also referred to as mAb1 [Antibody H1H685P]
% Decrease in Tumor Growth [1, 5]: 70% | Avg Tumor Growth [1, 5]: 308 ± 274 mm^3 | Avg Tumor Weight ([1]; PC3, 10 mg/kg intraperitoneal twice per week, approximately three weeks, mean ± SD): 0.44 ± 0.12 g | Avg Tumor Growth ([1]; PC3, 10 mg/kg intraperitoneal twice per week, mean ± SD): 305 ± 143 mm^3 | % Decrease in Tumor Growth [1, 6]: 40% | % Decrease in Tumor Weight [1, 6]: 33% | % Decrease in Tumor Growth [1, 7]: 47% | Avg Tumor Growth [1, 7]: 550 ± 150 mm^3 | % Decrease in Tumor Growth [1, 8]: 60% | Avg Tumor Growth [1, 8]: 413 ± 208 mm^3 | Anti-tumor activity in the PC3 mouse tumor model (in words) ([1]; as compared to the control constructs): especially marked anti-tumor activity | Blocking of binding of human Ang-1 to human Tie-2 (in words) [2]: do not significantly block | Percent of Neg. Ctrl Binding (hAng-1 WT) ([2]; 50 nM antibody or control): 95% | Specific Bound RU (hAng-1 WT) ([2]; 50 nM antibody or control): 299 RU | Percent of Neg. Ctrl Binding (hAng-1 WT) ([2]; 100 nM antibody or control): 95% | Specific Bound RU (hAng-1 WT) ([2]; 100 nM antibody or control): 291 RU | Percent of Negative Control Binding (hAng-1-WT to Tie-2) [2, 9]: 81% | RU (average), hAng-1-WT bound to hTie-2-mFc [2, 9]: 137 RU | Percent of Neg. Ctrl Binding (hAng-1 WT) ([2]; 1000 nM antibody or control): 105% | Specific Bound RU (hAng-1 WT) ([2]; 1000 nM antibody or control): 289 RU | Kd [3]: 0.0714 nM | Kd [4]: 0.0119 nM
